Measured values taken from patent US20070185184A1, “Carbazole derivatives” (Serenex, Inc., priority 2005, published 2007).

Tests used:
[1] = tested on: cell cycle progression in M-phase; assay: Analysis of cell cycle status: M-phase block (phospho-Histone 3 serine 10, ArrayScan); assay type: cell-based; settings: 5 hours incubation; vs 500 nM vinblastine (100% M-phase block) and DMSO (0%); read-out: M-phase block activities (IC50 range)
Protocol: Cells are seeded onto 96-well Packard View plates and incubated overnight. Test compounds are added to individual wells the following day at 10× concentrations and the plates returned to the incubator.
For identification of compounds that blocked cell cycle progression in M-phase, cells are incubated with compounds for 5 hours. After incubation, the cell growth media is removed and the cell monolayers are fixed with 3.7% formaldehyde, followed by treatment with 0.1% Triton X-100, and probed with a monoclonal phospho-specific Histone 3 serine 10 antibody. Bound primary antibody is detected with a FITC or TRITC conjugated secondary antibody. The cellular DNA is stained using Hoechst dye. Fixed cells are visualized using an ArrayScan 4.5 HCS plate reader. Cells positive for antibody binding are identified and quantified using the Target Activation Algorithm. IC50 Data from test compounds is generated by comparing test compound activity to the percentage of cells in M-phase detected in 500 nM vinblastine treated cells (100% M-phase block), and the percentage of M-phase cells detected in the DMSO control treated cells (0% M-phase block).

PC-3 cell proliferation = assay: Cell proliferation assay (Cyquant DNA assay); assay type: cell-based; settings: Homo sapiens; PC-3 cells, 2-5 days incubation, vs DMSO (100%) and 10 μM Actinomycin D (0%); read-out: inhibitory activities against PC-3 cell proliferation (IC50 range)
Protocol: A panel of cancer cell lines is obtained from the DCTP Tumor Repository, National Cancer Institute (Frederick, Md.) or ATCC (Rockville, Md.). Cell cultures are maintained in Hyclone RPMI 1640 medium (Logan, Utah) supplemented with 10% fetal bovine serum and 20 mM HEPES buffer, final pH 7.2, at 37° C. with a 5% CO2 atmosphere. Cultures are maintained at sub-confluent densities.
For proliferation assays, cells are seeded with the appropriate medium into 96 well plates at 1,000-2,500 cells per well, depending on the cell line, and are incubated overnight. The following day, test compound, DMSO solution (negative control), or Actinomycin D (positive control) is added to the appropriate wells as 10× concentrated stocks prepared in phosphate buffered saline. The cell plates where then incubated for an additional 2-5 days, depending on the cell line, to allow proliferation to occur. To measure cell density, growth medium is removed from the adherent cell lines, and the plates stored at −80° C. Using these assay plates, relative amounts of DNA in each well is determined using the Cyquant DNA assay kit from […] (Eugene, Oreg.) following the manufacturer's directions. Results for each compound treatment are compared to DMSO vehicle control (100%) and 10 μM Actinomycin D treated cells (0%).

## CC(=O)c1cn(-c2ccc(NC(N)=O)cc2Cl)c2ccc(Cl)cc12 [Compound 17, [4-(3-Acetyl-5-chloro-indol-1-yl)-3-chloro-phenyl]-urea]
[1]
  IC50: 500 to 5000 nM

## NC(=O)Nc1ccc(-n2c3c(c4cc(Cl)ccc42)C(=O)CCC3)c(Cl)c1 [Compound 41, [3-Chloro-4-(6-chloro-4-oxo-1,2,3,4-tetrahydro-carbazol-9-yl)-phenyl]-urea]
[1]
  IC50: < 500 nM

## COCCNc1cc(-n2cc(C(C)=O)c3ccccc32)ccc1C(N)=O [Compound 35, 4-(3-Acetyl-indol-1-yl)-2-(2-methoxy-ethylamino)-benzamide]
[1]
  IC50: 500 to 5000 nM

## NC(=O)c1ccc(-n2c3c(c4ccccc42)/C(=N/O)CCC3)c(Br)c1 [Compound 4, 3-Bromo-4-(4-hydroxyimino-1,2,3,4-tetrahydro-carbazol-9-yl)benzamide]
PC-3 cell proliferation
  IC50: 500 to 5000 nM

## CC(=O)c1cn(-c2ccc(C(N)=O)cc2Cl)c2cc(Cl)ccc12 [Compound 44, 4-(3-Acetyl-6-chloro-indol-1-yl)-3-chloro-benzamide]
[1]
  IC50: < 500 nM

## CC(=O)c1cn(-c2ccc(N)cc2Br)c2ccccc12 [Compound 37, 1-[1-(4-Amino-2-bromo-phenyl)-1H-indol-3-yl]-ethanone]
[1]
  IC50: 5000 to 50000 nM

## NC(=S)c1ccc(-n2c3c(c4ccccc42)C(=O)CCC3)c(Br)c1 [Compound 5, 3-Bromo-4-(4-oxo-1,2,3,4-tetrahydro-carbazol-9-yl)thiobenzamide]
PC-3 cell proliferation
  IC50: < 500 nM

## COCCNc1ccc(-n2c3c(c4ccccc42)C(=O)CCC3)c(C(F)(F)F)c1 [Compound 10, 9-[4-(2-methoxy-ethylamino)-2-trifluoromethyl-phenyl]-1,2,3,9-tetrahydro-carbazol-4-one]
PC-3 cell proliferation
  IC50: 500 to 5000 nM

## CC(=O)NC(=O)Nc1ccc(-n2c3c(c4ccccc42)C(=O)CCC3)c(Cl)c1 [Compound 40, 1-Acetyl-3-[3-chloro-4-(4-oxo-1,2,3,4-tetrahydro-carbazol-9-yl)-phenyl]-urea]
[1]
  IC50: < 500 nM

## NC(=O)c1ccc(-n2c3c(c4ccccc42)C(=O)NCC3)c(Cl)c1 [Compound 22, 3-Chloro-4-(1-oxo-1,2,3,4-tetrahydro-pyrido[4,3-b]indol-5-yl)-benzamide]
PC-3 cell proliferation
  IC50: 500 to 5000 nM

## NC(=O)c1ccc(C(F)(F)F)c(-n2c3c(c4ccccc42)C(=O)CCC3)c1 [Compound 14, 3-(4-Oxo-1,2,3,4-tetrahydro-carbazol-9-yl)-4-trifluoromethyl-benzamide]
PC-3 cell proliferation
  IC50: 5000 to 50000 nM

## NC(=O)c1ccc(-n2c3c(c4ccccc42)C(=O)CCC3)c(C(F)(F)F)c1 [Compound 29, 4-(4-Oxo-1,2,3,4-tetrahydro-carbazol-9-yl)-3-trifluoromethyl-benzamide]
[1]
  IC50: < 500 nM

## C=CCNc1cc(-n2c3c(c4ccccc42)C(=O)CCC3)ccc1C(N)=O [Compound 20, 2-Allylamino-4-(4-oxo-1,2,3,4-tetrahydro-carbazol-9-yl)-benzamide]
PC-3 cell proliferation
  IC50: 500 to 5000 nM

## C=CCNc1ccc(-n2c3c(c4ccccc42)C(=O)CCC3)c(C(F)(F)F)c1 [Compound 38, 9-(4-Allylamino-2-trifluoromethyl-phenyl)-1,2,3,9-tetrahydro-carbazol-4-one]
[1]
  IC50: 500 to 5000 nM

## C/C(=N\O)c1cn(-c2ccc(C(N)=O)cc2Cl)c2ccccc12 [Compound 7, 4-(3-(1-hydroxyimino-ethyl)-indol-1-yl)-3-chloro-benzamide]
PC-3 cell proliferation
  IC50: < 500 nM

## CC(=O)c1cn(-c2ccc(N)cc2Cl)c2cc(Cl)ccc12 [Compound 18, 1-[1-(4-Amino-2-chloro-phenyl)-6-chloro-1H-indol-3-yl]-ethanone]
[1]
  IC50: 500 to 5000 nM

## CC(=O)c1cn(-c2ccc(C(N)=O)cc2Cl)c2ccccc12 [Compound 6, 4-(3-Acetyl-indol-1-yl)-3-chloro-benzamide]
PC-3 cell proliferation
  IC50: < 500 nM

## NC(=O)c1ccc(-n2c3c(c4ccccc42)C(=O)CCC3)c(Cl)c1 [Compound 2, 3-Chloro-4-(4-oxo-1,2,3,4-tetrahydro-carbazol-9-yl)benzamide]
PC-3 cell proliferation
  IC50: < 500 nM

## COc1cc(-n2cc(C(C)=O)c3ccccc32)ccc1C(N)=O [Compound 43, 4-(3-Acetyl-indol-1-yl)-2-methoxy-benzamide]
[1]
  IC50: < 500 nM

## NC(=O)Nc1ccc(-n2c3c(c4ccccc42)C(=O)CCC3)c(Cl)c1 [Compound 13, 1-(3-chloro-4-(4-oxo-3,4-dihydro-1H-carbazol-9(2H)-yl)phenyl)urea]
PC-3 cell proliferation
  IC50: < 500 nM
